Test results published in US11821003B2, “Cardiogenic mesoderm formation regulators” (Sanford Burnham Prebys Medical Discovery Institute, priority 2017, dated 2023).
Entries after “also recorded” stand apart in the source; their conditions may differ.

Legend:
mESCs = conditions: cited from earlier work
[1] = system: cardiomyocytes derived from Id1 overexpressing h9-hESCs; assay: Beat rate of cardiomyocytes measured optically with VF2.1 Cl; format: cell-based, human; conditions: 100 nM, compared to vehicle
Procedure: FIG. 3F. Schematic of the workflow for the physiological assessment of cardiomyocytes derived from Id1 overexpressing h9-hESCs using the calcium (Fluo-4) and voltage (VF2.1 Cl)(Miller et al., 2012) sensitive dyes.
Next, experiments were performed to determine whether iMP progenitors are bona fide multipotent cardiovascular progenitors and thus able to differentiate into multiple cardiac lineages including functional cardiomyocytes. To address this question, iMPs were first produced in bulk until day 6 of differentiation for mouse, or day 5 for human. At this point, iMPs could be cryopreserved or used fresh. Spontaneous differentiation potential under basal media conditions without cytokines (FIG. 3A) was assessed by RT-qPCR (FIGS. 3B, 3C) and immunostaining (FIG. 3D and FIGS. 9A, 9B) at day 15 of differentiation. […] Although iMPs are multipotent progenitors, the vast majority of the cells (˜70%) spontaneously differentiate into ACTC1^+ cardiomyocytes in hESCs (FIG. 3E). Next, we assessed whether resulting ACTC1^+ cells show characteristics of functional cardiomyocytes, which include the ability to contract, display intracellular calcium oscillations and action potentials, and respond to hormonal stimuli (Birket et al., 2015; Burridge et al., 2014).

For NC(=O)c1ccc(-c2nc(-c3ccc4c(c3)OCO4)c(-c3ccccn3)[nH]2)cc1 [SB431542], the Id1 transcripts (mESCs) is given as “upregulate Id1 transcripts”.

With CC(C)NCC(O)c1ccc(O)c(O)c1 (centres unmarked) [isoproterenol] the beat rate [1] was “increased beat rate; also recorded: increase in beating frequency”.
